Values belong to the compound of their own block, whether it stands above or below them.
Legend:
[1] = Stability of GLOP / racemic ester in solvents on standing; format: physicochemical
Text: At six days, only about half of the original amount of ester remained.

[2] = aqueous solution; cited from earlier work
[3] = biological target: T1, Palatase M (Rhizomucor miehei, UniProt P19515); assay: Degree of inhibition by reaction products: initial rate of hydrolysis of compound A by Palatase M; format: biochemical; conditions: pH 8.0, 400 mM compound A in toluene, in the presence of 1 mmole (50 mM) of the compound, A alone = 1.0
T1 construct: purchased Novo
T1 sequence (P19515 95-363): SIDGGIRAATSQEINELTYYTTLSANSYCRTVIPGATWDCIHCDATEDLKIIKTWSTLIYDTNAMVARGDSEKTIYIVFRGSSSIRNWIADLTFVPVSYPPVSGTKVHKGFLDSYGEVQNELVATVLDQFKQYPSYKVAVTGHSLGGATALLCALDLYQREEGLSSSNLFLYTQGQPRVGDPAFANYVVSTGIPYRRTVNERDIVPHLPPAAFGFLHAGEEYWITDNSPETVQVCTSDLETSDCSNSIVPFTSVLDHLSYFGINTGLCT
Description: (§1) A reaction mixture composed of 12 mls of 50 mM sodium phosphate buffer at pH 8.0 and 8 mls of a 400 mM toluene solution of pure, racemic compound A, was rapidly stirred and the reaction rate monitored by a device known as a “pH stat”. A given amount of a given commercial enzyme preparation was then added to the reaction mixture, and the initial rate of hydrolysis calculated. The reaction was repeated in the presence of 1 mmole (50 mM) of compound C, in the presence of 1 mmole (50 mM) of compound D, and in the presence of 1 mmole (50 mM) of compound E. The results are tabulated in Table 11.

[4] = biological target: T2, Lipase P (Burkholderia cepacia, UniProt P22088); assay: Degree of inhibition by reaction products: initial rate of hydrolysis of compound A by Lipase P; format: biochemical; conditions: pH 8.0, 400 mM compound A in toluene, in the presence of 1 mmole (50 mM) of the compound, A alone = 1.0
T2 construct: purchased Amano
Description: as §1

[5] = test system: Lipase MAP; assay: Degree of inhibition by reaction products: initial rate of hydrolysis of compound A by Lipase MAP; format: biochemical; conditions: pH 8.0, 400 mM compound A in toluene, in the presence of 1 mmole (50 mM) of the compound, A alone = 1.0
Description: as §1

[6] = test system: Lipase OF; assay: Degree of inhibition by reaction products: initial rate of hydrolysis of compound A by Lipase OF; format: biochemical, Candida cylindracea; conditions: pH 8.0, 400 mM compound A in toluene, in the presence of 1 mmole (50 mM) of the compound, A alone = 1.0
Description: as §1

[7] = Non-enzymatic degradation of substrate ester in the presence of BSA; format: physicochemical
Text: Following these experiments, another factor was then considered. As the interfacial activity of any compound will be affected by surfactants, for instance a protein, one could expect the presence of the enzyme to exert effects on the non-enzymatic nonspecific degradation of the substrate compound. To test this proposition, control experiments were run in which bovine serum albumin (BSA) was substituted for the hydrolytic enzyme in the reaction mixture. The chlorinated hydrocarbons and p-xylene were omitted for convenience.
Racemic 3-(4-methoxyphenyl) glycidic acid methyl ester (10.0 mmols, 2.08 g) was dissolved in 50 mL of the chosen organic solvent, and added to 50 mL of 200 mM sodium phosphate buffer at the chosen pH (7.0, 8.0, or 8.5) in a 250 mL shaker flask. Bovine serum albumin (BSA, 100 mg) was then added. The flask was closed, and agitated for 18 hours at ambient temperature (20-25° C.). The reaction mixture was then poured into a separatory funnel, the organic layer removed (except in the case of 1,4-dioxane, which is miscible in water), and the aqueous layer washed with diethyl ether. The organic layers were then combined, backwashed with water, and dried over anhydrous magnesium sulfate. The organic solvent was then removed under reduced pressure, and the recovered ester weighed to determine the extent of non-enzymatic degradation.

[8] = Solubility of racemic ester in toluene; format: physicochemical; conditions: 4° C.
Description: The amount of toluene required to dissolve the racemic ester at 4° C. was determined by dividing the weight of racemic ester by the solubility of the ester in toluene at this temperature (˜0.13 g of racemic ester/g of toluene). The weight of toluene required was then 19.07/0.13=146.7 g. The two organic fractions were combined and toluene was then evaporated until the total weight of toluene plus ester was equal to 146.7+109.5 or 256.2 g. Afterward, the organic concentrate containing ester and toluene was cooled to 4° C. for 18 hours in order to crystallize the (2R,3S) enantiomer of the ester. The precipitated crystals were then filtered and analyzed, while the mother liquor was saved for recycling. The amount of solids collected was 91.9 g. […] The yield of resolved ester was 38.6%.

[9] = Loss of compound A on extraction with 10% bisulfite solution; format: physicochemical; conditions: diethyl ether solution extracted once with 10% bisulfite solution
Description: 2.0 g of pure, racemic compound A were dissolved in 200 mls of diethyl ether. This organic solution was then extracted once with 250 mls of a 10% bisulfite solution, washed with 250 mls water, dried over magnesium sulphate, and evaporated to leave 1.8 g of racemic compound A, indicating a 10% loss of material. Recovery of material in the absence of the bisulfite wash was nearly quantitative.

[10] = Degradation rate of racemic ester in membrane reactor system, toluene vs MIBK; format: physicochemical; conditions: organic solution in contact with 50 mM phosphate buffer pH 8.0, membrane reactor
Description: In a separate experiment, the degradation rate of racemic ester was measured in a membrane reactor system using two kinds of solvent, toluene and methyl isobutyl ketone (MIBK), at different concentrations of glycidyl ester. These organic solutions were brought into contact separately with a 50 mM phosphate buffer (pH 8.0) to simulate enzymatic resolution conditions. The amount of ester present in the organic solutions was monitored over several hours.

[11] = Stability of glycidic ester in aqueous phosphate buffer with and without toluene; format: physicochemical
Text: In the present invention, enzyme catalysts are present either dissolved or dispersed in an aqueous phase. Although the glycidic esters described herein are generally quite insoluble in water, the epoxide ring is susceptible to opening through nucleophilic attack by species such as hydroxide ions and water molecules, even in the absence of enzymes. […] Therefore, the use of an organic phase as a method for protecting the substrate from undesired transformations by water, hydroxide ions, or water-soluble buffer systems is a significant aspect of this invention. These experimental observations indicate the need for a biphasic system, and preferably a multiphase/extractive membrane reactor as described below, for efficiently conducting the enzyme-mediated resolution process disclosed herein.

T2 sequence (P22088 45-364): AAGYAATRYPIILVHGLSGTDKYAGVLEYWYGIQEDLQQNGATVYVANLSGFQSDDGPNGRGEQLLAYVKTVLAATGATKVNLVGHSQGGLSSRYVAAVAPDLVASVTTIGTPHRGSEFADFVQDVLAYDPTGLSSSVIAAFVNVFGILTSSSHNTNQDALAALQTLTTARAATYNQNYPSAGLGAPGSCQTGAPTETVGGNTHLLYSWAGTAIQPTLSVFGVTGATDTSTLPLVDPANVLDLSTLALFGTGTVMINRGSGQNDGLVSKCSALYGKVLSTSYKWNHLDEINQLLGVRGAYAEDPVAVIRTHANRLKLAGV

Compound: COC(=O)[C@@H]1O[C@H]1c1ccc(OC)cc1 [resolved GLOP, (2R,3S)-3-(4-methoxyphenyl)glycidic acid methyl ester]
Stability in solution ([1]; aromatic solvent, ambient temperature, over days): stable against the loss of material or optical activity

Compound: O=S(O)O [bisulfite anion]
pKa [2]: approximately 7

Compound: COc1ccc(CC(=O)O)cc1 [D, 4-methoxyphenylacetic acid]
Relative Initial Rates [3]: >1.0
Relative Initial Rates [4]: 1.07
Relative Initial Rates [5]: 0.99
Relative Initial Rates [6]: 1.18

Compound: COc1ccc(CC=O)cc1 [C, 4-methoxyphenylacetaldehyde]
Relative Initial Rates [3]: 0.38
Relative Initial Rates [4]: 1.00
Relative Initial Rates [5]: 0.73
Relative Initial Rates [6]: 0.63

Percent degradation ([7]; 1,4-dioxane, pH 7.0, 18 hours ambient): 40.9%
Percent degradation ([7]; 1,4-dioxane, pH 8.0, 18 hours ambient): 21.6%
Percent degradation ([7]; MIBK, pH 8.0, 18 hours ambient): 15.0%
Percent degradation ([7]; MIBK, pH 8.5, 18 hours ambient): 12.0%
Percent degradation ([7]; MetBuO, pH 7.0, 18 hours ambient): 41.8%
Percent degradation ([7]; MetBuO, pH 8.0, 18 hours ambient): 22.1%
Percent degradation ([7]; benzene, pH 7.0, 18 hours ambient): 38.5%
Percent degradation ([7]; benzene, pH 8.0, 18 hours ambient): 14.4%
Percent degradation ([7]; cyclohexane, pH 7.0, 18 hours ambient): 71.6%
Percent degradation ([7]; cyclohexane, pH 8.0, 18 hours ambient): 38.5%
Percent degradation ([7]; toluene, pH 8.0, 18 hours ambient): 14.3%
Percent degradation ([7]; toluene, pH 8.5, 18 hours ambient): 19.1%
Solubility of the ester in toluene [8]: ~0.13 g of racemic ester/g of toluene
Loss of material [9]: 10%
Degradation rate constant in MIBK relative to toluene [10]: about 3 times
Stability in aqueous buffer ([11]; aqueous sodium phosphate buffer pH 7.0, 18 hours, ambient temperature, no organic solvent or enzyme): loss of glycidic ester
Glycidic ester recovered ([11]; toluene in 1-to-1 phase ratio with pH 7.0 buffer, 18 hours): 100%
Original amount of ester remaining ([1]; saturated methanol solution, room temperature, six days): about half
Original amount of ester degraded ([1]; saturated methanol solution, room temperature, two days, HPLC): about 9%
Compound: COC(=O)[C@@H]1O[C@H]1c1ccc(OC)cc1 (relative stereo) [Compound A, trans-3-(4-methoxyphenyl)glycidic acid methyl ester]

Source: patent US6521445B1, “Process for preparing optically active glycidate esters” (Sepracor, Inc., priority 1988, dated 2003)
